# Measurements published in publication PMC4312132, “Phenylalanine in the Pore of the Erwinia Ligand-Gated Ion Channel Modulates Picrotoxinin Potency but Not Receptor Function” (Biochemistry, 2014).
# Like-named read-outs stand apart in the source and are kept apart here.
# What was measured:
# F16′Y ELIC = molecular target: T1, F16′Y ELIC (Dickeya chrysanthemi, UniProt P0C7B7, F246Y); experiment: GABA activation of F16′Y ELIC, two-electrode voltage clamp in Xenopus oocytes; type: cell-based, Erwinia chrysanthemii; conditions: F16′Y ELIC; GABA concentration–response
# T1 construct: expressed in transfected cells; host or cells: Xenopus laevis oocytes (cRNA injection)
# F16′E ELIC [1] = molecular target: T2, F16′E ELIC (Dickeya chrysanthemi, UniProt P0C7B7, F246E); experiment: GABA activation of F16′E ELIC, two-electrode voltage clamp in Xenopus oocytes; type: cell-based, Erwinia chrysanthemii
# T2 construct: expressed in transfected cells; host or cells: Xenopus laevis oocytes (cRNA injection)
# Description: (§1) Xenopus laevis oocyte-positive females were purchased from NASCO (Fort Atkinson, WI) and maintained according to standard methods. Harvested stage V and VI Xenopus oocytes were washed in four changes of Ca^2+-free ND96 [96 mM NaCl, 2 mM KCl, 1 mM MgCl2, and 5 mM HEPES (pH 7.5)], defolliculated in 1.5 mg mL^–1 collagenase type 1A for approximately 2 h, washed again in four changes of ND96, and stored in ND96 at 16 °C containing 2.5 mM sodium pyruvate, […] gentamycin, and 0.7 mM theophylline.
# (§2) ELIC (GenBank accession number ADN00343.1) was kindly provided by C. Ulens. For expression in Xenopus oocytes, it was cloned into pGEMHE with the signal sequence of the human α7 nACh receptor. […] Stage V and VI oocytes were injected with 20 ng of cRNA, and currents were recorded 1–3 days postinjection.
# (§3) Using two-electrode voltage clamp, Xenopus oocytes were clamped at −60 mV using an OC-725 amplifier (Warner Instruments, Hamden, CT), Digidata 1322A, and the Strathclyde Electrophysiology Software Package (Department of Physiology and Pharmacology, University of Strathclyde, Glasgow, U.K.). Currents were recorded at 5 kHz and filtered at a frequency of 1 kHz. […] Inhibition by test compounds was measured at the GABA EC50 for each mutant. […]
# F16′A ELIC [2] = molecular target: T3, F16′A ELIC (Dickeya chrysanthemi, UniProt P0C7B7, F246A); experiment: GABA activation of F16′A ELIC, two-electrode voltage clamp in Xenopus oocytes; type: cell-based, Erwinia chrysanthemii; conditions: F16′A ELIC; GABA concentration–response
# T3 construct: expressed in transfected cells; host or cells: Xenopus laevis oocytes (cRNA injection)
# Description: as §1, §2, §3
# T6′A ELIC [3] = molecular target: T4, T6′A ELIC (Dickeya chrysanthemi, UniProt P0C7B7, T236A); experiment: GABA activation of T6′A ELIC, two-electrode voltage clamp in Xenopus oocytes; type: cell-based, Erwinia chrysanthemii; conditions: T6′A ELIC; GABA concentration–response
# T4 construct: expressed in transfected cells; host or cells: Xenopus laevis oocytes (cRNA injection)
# Q2′N ELIC [4] = molecular target: T5, Q2′N ELIC (Dickeya chrysanthemi, UniProt P0C7B7, Q232N); experiment: GABA activation of Q2′N ELIC, two-electrode voltage clamp in Xenopus oocytes; type: cell-based, Erwinia chrysanthemii; conditions: Q2′N ELIC; GABA concentration–response
# T5 construct: expressed in transfected cells; host or cells: Xenopus laevis oocytes (cRNA injection)
# F16′L ELIC = molecular target: T6, F16′L ELIC (Dickeya chrysanthemi, UniProt P0C7B7, F246L); experiment: GABA activation of F16′L ELIC, two-electrode voltage clamp in Xenopus oocytes; type: cell-based, Erwinia chrysanthemii
# T6 construct: expressed in transfected cells; host or cells: Xenopus laevis oocytes (cRNA injection)
# Description: as §1, §2, §3
# Q2′A ELIC = molecular target: T7, Q2′A ELIC (Dickeya chrysanthemi, UniProt P0C7B7, Q232A); experiment: GABA activation of Q2′A ELIC, two-electrode voltage clamp in Xenopus oocytes; type: cell-based, Erwinia chrysanthemii; conditions: Q2′A receptors
# T7 construct: expressed in transfected cells; host or cells: Xenopus laevis oocytes (cRNA injection)
# Description: as §1, §2, §3
# F16′S ELIC [5] = molecular target: T8, F16′S ELIC (Dickeya chrysanthemi, UniProt P0C7B7, F246S); experiment: GABA activation of F16′S ELIC, two-electrode voltage clamp in Xenopus oocytes; type: cell-based, Erwinia chrysanthemii; conditions: F16′S ELIC; GABA concentration–response
# T8 construct: expressed in transfected cells; host or cells: Xenopus laevis oocytes (cRNA injection)
# F16′W ELIC [6] = molecular target: T9, F16′W ELIC (Dickeya chrysanthemi, UniProt P0C7B7, F246W); experiment: GABA activation of F16′W ELIC, two-electrode voltage clamp in Xenopus oocytes; type: cell-based, Erwinia chrysanthemii; conditions: F16′W ELIC; GABA concentration–response
# T9 construct: expressed in transfected cells; host or cells: Xenopus laevis oocytes (cRNA injection)
# wild type ELIC [7] = molecular target: T10, wild type ELIC (Dickeya chrysanthemi, UniProt P0C7B7); experiment: GABA activation of wild-type ELIC, two-electrode voltage clamp in Xenopus oocytes; type: cell-based, Erwinia chrysanthemii
# T10 construct: expressed in transfected cells; host or cells: Xenopus laevis oocytes (cRNA injection)
# Description: as §1
# (§4) ELIC (GenBank accession number ADN00343.1) was kindly provided by C. Ulens. For expression in Xenopus oocytes, it was cloned into pGEMHE with the signal sequence of the human α7 nACh receptor. Site-directed mutagenesis was performed with the QuikChange mutagenesis kit (Stratagene, La Jolla, CA). cRNA was transcribed in vitro from the linearized pGEMHE cDNA template using the mMessage mMachine T7 transcription kit (Ambion, Austin, TX). Stage V and VI oocytes were injected with 20 ng of cRNA, and currents were recorded 1–3 days postinjection.
# (§5) Using two-electrode voltage clamp, Xenopus oocytes were clamped at −60 mV using an OC-725 amplifier (Warner Instruments, Hamden, CT), Digidata 1322A, and the Strathclyde Electrophysiology Software Package (Department of Physiology and Pharmacology, University of Strathclyde, Glasgow, U.K.). Currents were recorded at 5 kHz and filtered at a frequency of 1 kHz. Microelectrodes were fabricated from borosilicate glass (GC120TF-10, Harvard Apparatus, Edenbridge, Kent, U.K.) using a one-stage horizontal pull (P-87, Sutter Instrument Co., Novato, CA) and filled with 3 M KCl. Pipette resistances ranged from 1.0 to 2.0 MΩ. Oocytes were perfused with ND96 at a constant rate of 12 mL min^–1 with complete solution exchange within 5 s. Drug application was accomplished via a simple gravity-fed system calibrated to run at the same rate. Inhibition by test compounds was measured at the GABA EC50 for each mutant.
# Analysis and curve fitting were performed using Prism version 4.03 (GraphPad Software, San Diego, CA). […]
# F16′T ELIC [8] = molecular target: T11, F16′T ELIC (Dickeya chrysanthemi, UniProt P0C7B7, F246T); experiment: GABA activation of F16′T ELIC, two-electrode voltage clamp in Xenopus oocytes; type: cell-based, Erwinia chrysanthemii; conditions: F16′T ELIC; GABA concentration–response
# T11 construct: expressed in transfected cells; host or cells: Xenopus laevis oocytes (cRNA injection)
# F16′S/T6′S ELIC = molecular target: T12, F16′S/T6′S ELIC (Dickeya chrysanthemi, UniProt P0C7B7, F246S/T236S); experiment: GABA activation of F16′S/T6′S ELIC, two-electrode voltage clamp in Xenopus oocytes; type: cell-based, Erwinia chrysanthemii; conditions: F16′S/T6′S ELIC; GABA concentration–response
# T12 construct: expressed in transfected cells; host or cells: Xenopus laevis oocytes (cRNA injection)
# F16′D ELIC [9] = molecular target: T13, F16′D ELIC (Dickeya chrysanthemi, UniProt P0C7B7, F246D); experiment: GABA activation of F16′D ELIC, two-electrode voltage clamp in Xenopus oocytes; type: cell-based, Erwinia chrysanthemii; conditions: F16′D ELIC; GABA concentration–response
# T13 construct: expressed in transfected cells; host or cells: Xenopus laevis oocytes (cRNA injection)
# F16′Q ELIC = molecular target: T14, F16′Q ELIC (Dickeya chrysanthemi, UniProt P0C7B7, F246Q); experiment: GABA activation of F16′Q ELIC, two-electrode voltage clamp in Xenopus oocytes; type: cell-based, Erwinia chrysanthemii; conditions: F16′Q ELIC; GABA concentration–response
# T14 construct: expressed in transfected cells; host or cells: Xenopus laevis oocytes (cRNA injection)
# T6′S ELIC [10] = molecular target: T15, T6′S ELIC (Dickeya chrysanthemi, UniProt P0C7B7, T236S); experiment: GABA activation of T6′S ELIC, two-electrode voltage clamp in Xenopus oocytes; type: cell-based, Erwinia chrysanthemii; conditions: T6′S ELIC; GABA concentration–response
# T15 construct: expressed in transfected cells; host or cells: Xenopus laevis oocytes (cRNA injection)
# T6′A ELIC [11] = molecular target: T4, T6′A ELIC; experiment: Inhibition of GABA-elicited currents of T6′A ELIC in Xenopus oocytes; type: cell-based, Erwinia chrysanthemii; conditions: T6′A ELIC; inhibition curve
# Description: as §1, §2, §3
# F16′A ELIC [12] = molecular target: T3, F16′A ELIC; experiment: Inhibition of GABA-elicited currents of F16′A ELIC in Xenopus oocytes; type: cell-based, Erwinia chrysanthemii; conditions: F16′A ELIC; inhibition curve
# Q2′N ELIC [13] = molecular target: T5, Q2′N ELIC; experiment: Inhibition of GABA-elicited currents of Q2′N ELIC in Xenopus oocytes; type: cell-based, Erwinia chrysanthemii; conditions: Q2′N ELIC; inhibition curve
# GLIC = tested on: GLIC; design: method as in PMID 22677470, PMID 22208189; conditions: cited from earlier work
# F16′D ELIC [14] = molecular target: T13, F16′D ELIC; experiment: Inhibition of GABA-elicited currents of F16′D ELIC in Xenopus oocytes; type: cell-based, Erwinia chrysanthemii; conditions: F16′D ELIC; inhibition curve
# Description: as §1, §2, §3
# F16′W ELIC [15] = molecular target: T9, F16′W ELIC; experiment: Inhibition of GABA-elicited currents of F16′W ELIC in Xenopus oocytes; type: cell-based, Erwinia chrysanthemii; conditions: F16′W ELIC
# F16′S ELIC [16] = molecular target: T8, F16′S ELIC; experiment: Inhibition of GABA-elicited currents of F16′S ELIC in Xenopus oocytes; type: cell-based, Erwinia chrysanthemii; conditions: F16′S ELIC
# T6′S ELIC [17] = molecular target: T15, T6′S ELIC; experiment: Inhibition of GABA-elicited currents of T6′S ELIC in Xenopus oocytes; type: cell-based, Erwinia chrysanthemii; conditions: T6′S ELIC; inhibition curve
# F16′E ELIC [18] = molecular target: T2, F16′E ELIC; experiment: Inhibition of GABA-elicited currents of F16′E ELIC in Xenopus oocytes; type: cell-based, Erwinia chrysanthemii; conditions: F16′E ELIC; inhibition curve
# F16′T ELIC [19] = molecular target: T11, F16′T ELIC; experiment: Inhibition of GABA-elicited currents of F16′T ELIC in Xenopus oocytes; type: cell-based, Erwinia chrysanthemii; conditions: F16′T ELIC; inhibition curve
# wild type ELIC [20] = molecular target: T10, wild type ELIC; experiment: Inhibition of GABA-elicited currents of wild-type ELIC in Xenopus oocytes; type: cell-based, Erwinia chrysanthemii
# Description: as §1, §4, §5
# Analysis and curve fitting were performed using Prism version 4.03 (GraphPad Software, San Diego, CA). Concentration–response data for each oocyte were normalized to the maximal current for that oocyte and the mean ± standard error of the mean (SEM) for a series of oocytes pooled and plotted against agonist or antagonist concentration and iteratively fit to the four-parameter logistic equation. Statistical analysis was performed using a Student’s t test.
# T8 sequence (P0C7B7 whole entry F246S): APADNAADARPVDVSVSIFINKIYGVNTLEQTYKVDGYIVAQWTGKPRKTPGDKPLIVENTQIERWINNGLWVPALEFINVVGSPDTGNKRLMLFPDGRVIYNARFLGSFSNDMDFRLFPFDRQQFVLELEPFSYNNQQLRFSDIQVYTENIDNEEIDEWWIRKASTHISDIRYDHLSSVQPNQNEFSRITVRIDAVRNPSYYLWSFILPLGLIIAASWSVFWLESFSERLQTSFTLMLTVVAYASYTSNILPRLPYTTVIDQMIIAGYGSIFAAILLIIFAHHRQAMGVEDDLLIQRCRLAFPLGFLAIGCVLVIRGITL
# T10 sequence (P0C7B7 whole entry): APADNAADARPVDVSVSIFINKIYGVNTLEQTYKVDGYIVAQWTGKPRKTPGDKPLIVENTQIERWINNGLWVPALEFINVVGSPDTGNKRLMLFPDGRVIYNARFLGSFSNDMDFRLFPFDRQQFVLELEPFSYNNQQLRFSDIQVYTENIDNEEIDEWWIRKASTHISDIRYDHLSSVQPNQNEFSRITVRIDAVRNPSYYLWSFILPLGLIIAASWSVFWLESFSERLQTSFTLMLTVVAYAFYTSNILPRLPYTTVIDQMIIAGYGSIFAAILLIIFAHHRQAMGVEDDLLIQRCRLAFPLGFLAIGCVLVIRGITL
# T9 sequence (P0C7B7 whole entry F246W): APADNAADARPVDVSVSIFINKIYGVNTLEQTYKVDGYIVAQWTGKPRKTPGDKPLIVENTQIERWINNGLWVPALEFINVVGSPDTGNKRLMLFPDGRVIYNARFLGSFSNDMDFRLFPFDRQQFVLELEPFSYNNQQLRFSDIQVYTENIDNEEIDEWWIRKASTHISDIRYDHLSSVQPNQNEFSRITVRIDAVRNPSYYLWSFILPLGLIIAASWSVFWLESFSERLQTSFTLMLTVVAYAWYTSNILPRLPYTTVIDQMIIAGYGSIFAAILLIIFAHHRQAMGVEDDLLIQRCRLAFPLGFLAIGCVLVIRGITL
# T2 sequence (P0C7B7 whole entry F246E): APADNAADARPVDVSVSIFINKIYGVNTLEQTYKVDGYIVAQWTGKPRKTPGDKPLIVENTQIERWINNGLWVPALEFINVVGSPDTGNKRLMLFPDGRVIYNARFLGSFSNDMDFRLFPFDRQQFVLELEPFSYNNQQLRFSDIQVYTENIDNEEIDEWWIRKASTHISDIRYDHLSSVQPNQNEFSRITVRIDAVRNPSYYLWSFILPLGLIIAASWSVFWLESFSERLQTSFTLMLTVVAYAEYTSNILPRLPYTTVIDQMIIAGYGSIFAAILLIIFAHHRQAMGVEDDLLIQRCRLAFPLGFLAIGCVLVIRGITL
# T6 sequence (P0C7B7 whole entry F246L): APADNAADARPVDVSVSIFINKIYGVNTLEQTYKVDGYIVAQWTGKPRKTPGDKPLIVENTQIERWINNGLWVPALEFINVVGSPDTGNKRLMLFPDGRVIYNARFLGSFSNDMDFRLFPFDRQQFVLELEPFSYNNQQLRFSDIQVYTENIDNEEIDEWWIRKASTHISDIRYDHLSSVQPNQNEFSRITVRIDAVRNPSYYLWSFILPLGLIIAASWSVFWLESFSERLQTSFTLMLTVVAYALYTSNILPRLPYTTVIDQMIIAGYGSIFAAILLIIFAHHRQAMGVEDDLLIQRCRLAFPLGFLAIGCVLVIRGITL
# T4 sequence (P0C7B7 whole entry T236A): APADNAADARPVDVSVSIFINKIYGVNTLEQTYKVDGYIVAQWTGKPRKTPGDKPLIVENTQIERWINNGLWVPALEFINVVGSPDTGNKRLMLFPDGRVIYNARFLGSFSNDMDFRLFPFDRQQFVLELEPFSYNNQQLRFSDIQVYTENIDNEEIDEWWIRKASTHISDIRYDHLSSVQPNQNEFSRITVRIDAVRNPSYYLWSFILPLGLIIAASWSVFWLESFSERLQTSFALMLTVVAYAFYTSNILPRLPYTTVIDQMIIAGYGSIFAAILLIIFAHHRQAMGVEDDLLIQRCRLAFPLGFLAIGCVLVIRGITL
# T5 sequence (P0C7B7 whole entry Q232N): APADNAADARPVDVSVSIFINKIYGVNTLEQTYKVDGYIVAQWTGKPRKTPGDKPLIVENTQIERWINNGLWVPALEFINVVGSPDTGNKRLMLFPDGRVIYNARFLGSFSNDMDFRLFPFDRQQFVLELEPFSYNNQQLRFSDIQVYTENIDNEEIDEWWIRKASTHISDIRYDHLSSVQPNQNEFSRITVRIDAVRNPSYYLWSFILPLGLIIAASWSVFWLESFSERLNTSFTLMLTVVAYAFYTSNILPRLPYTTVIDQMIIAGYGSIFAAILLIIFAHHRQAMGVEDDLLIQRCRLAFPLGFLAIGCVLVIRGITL
# T11 sequence (P0C7B7 whole entry F246T): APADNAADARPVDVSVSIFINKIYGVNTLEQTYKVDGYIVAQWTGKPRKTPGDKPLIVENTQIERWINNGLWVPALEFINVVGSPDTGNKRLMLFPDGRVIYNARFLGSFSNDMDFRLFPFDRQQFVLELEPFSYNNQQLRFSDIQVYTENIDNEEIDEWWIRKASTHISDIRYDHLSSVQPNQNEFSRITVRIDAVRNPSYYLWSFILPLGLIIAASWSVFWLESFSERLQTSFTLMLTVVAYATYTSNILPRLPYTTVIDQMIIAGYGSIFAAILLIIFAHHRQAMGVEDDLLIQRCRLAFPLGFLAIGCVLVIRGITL
# T13 sequence (P0C7B7 whole entry F246D): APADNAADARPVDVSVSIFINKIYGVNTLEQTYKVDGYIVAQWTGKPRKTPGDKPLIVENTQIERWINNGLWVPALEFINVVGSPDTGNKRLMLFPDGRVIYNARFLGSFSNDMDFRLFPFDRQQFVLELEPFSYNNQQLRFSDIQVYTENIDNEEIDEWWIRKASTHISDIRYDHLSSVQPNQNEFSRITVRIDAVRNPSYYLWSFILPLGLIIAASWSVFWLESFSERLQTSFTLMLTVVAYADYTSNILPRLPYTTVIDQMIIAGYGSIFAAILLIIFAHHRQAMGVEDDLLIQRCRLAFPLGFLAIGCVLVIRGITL
# T3 sequence (P0C7B7 whole entry F246A): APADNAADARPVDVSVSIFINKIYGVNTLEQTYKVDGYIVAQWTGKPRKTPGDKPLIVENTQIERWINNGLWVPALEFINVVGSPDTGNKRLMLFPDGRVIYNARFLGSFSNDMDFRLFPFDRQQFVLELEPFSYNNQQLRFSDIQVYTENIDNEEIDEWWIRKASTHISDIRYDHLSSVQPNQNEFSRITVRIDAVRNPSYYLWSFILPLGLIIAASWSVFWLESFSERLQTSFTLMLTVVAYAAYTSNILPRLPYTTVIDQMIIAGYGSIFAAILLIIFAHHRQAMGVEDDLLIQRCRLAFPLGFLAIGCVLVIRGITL
# T15 sequence (P0C7B7 whole entry T236S): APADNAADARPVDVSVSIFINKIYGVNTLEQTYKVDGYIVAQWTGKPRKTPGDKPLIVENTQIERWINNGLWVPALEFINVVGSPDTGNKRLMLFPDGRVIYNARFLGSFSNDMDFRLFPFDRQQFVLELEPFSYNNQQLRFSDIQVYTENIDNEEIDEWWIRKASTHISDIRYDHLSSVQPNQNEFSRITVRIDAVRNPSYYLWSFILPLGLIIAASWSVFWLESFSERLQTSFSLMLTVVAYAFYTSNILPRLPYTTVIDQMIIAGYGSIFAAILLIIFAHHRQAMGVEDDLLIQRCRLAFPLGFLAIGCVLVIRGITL
# T7 sequence (P0C7B7 whole entry Q232A): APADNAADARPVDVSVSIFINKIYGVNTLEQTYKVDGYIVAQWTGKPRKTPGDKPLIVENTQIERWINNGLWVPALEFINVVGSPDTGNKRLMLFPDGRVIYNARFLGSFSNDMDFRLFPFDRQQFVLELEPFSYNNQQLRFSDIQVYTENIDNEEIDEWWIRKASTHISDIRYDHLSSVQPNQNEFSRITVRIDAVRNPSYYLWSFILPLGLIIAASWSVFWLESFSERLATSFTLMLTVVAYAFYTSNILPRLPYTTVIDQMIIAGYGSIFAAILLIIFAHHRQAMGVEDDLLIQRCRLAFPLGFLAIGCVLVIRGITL
# T1 sequence (P0C7B7 whole entry F246Y): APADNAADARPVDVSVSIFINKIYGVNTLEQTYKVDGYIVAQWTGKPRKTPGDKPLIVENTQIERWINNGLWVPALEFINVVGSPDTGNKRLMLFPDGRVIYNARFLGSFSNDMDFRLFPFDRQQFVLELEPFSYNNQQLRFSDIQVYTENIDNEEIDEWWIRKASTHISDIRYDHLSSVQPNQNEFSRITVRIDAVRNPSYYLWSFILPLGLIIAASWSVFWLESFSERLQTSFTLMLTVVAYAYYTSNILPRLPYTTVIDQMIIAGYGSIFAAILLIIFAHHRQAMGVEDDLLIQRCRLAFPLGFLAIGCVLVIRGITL
# T12 sequence (P0C7B7 whole entry T236S/F246S): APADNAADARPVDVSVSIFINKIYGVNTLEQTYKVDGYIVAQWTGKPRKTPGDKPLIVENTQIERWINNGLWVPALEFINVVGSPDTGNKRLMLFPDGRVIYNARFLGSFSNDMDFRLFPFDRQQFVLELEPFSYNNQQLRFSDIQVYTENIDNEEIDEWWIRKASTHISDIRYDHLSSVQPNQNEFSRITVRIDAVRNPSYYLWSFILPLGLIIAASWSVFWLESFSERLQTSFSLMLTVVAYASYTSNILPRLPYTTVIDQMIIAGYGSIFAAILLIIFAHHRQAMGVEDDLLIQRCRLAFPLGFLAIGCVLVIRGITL
# T14 sequence (P0C7B7 whole entry F246Q): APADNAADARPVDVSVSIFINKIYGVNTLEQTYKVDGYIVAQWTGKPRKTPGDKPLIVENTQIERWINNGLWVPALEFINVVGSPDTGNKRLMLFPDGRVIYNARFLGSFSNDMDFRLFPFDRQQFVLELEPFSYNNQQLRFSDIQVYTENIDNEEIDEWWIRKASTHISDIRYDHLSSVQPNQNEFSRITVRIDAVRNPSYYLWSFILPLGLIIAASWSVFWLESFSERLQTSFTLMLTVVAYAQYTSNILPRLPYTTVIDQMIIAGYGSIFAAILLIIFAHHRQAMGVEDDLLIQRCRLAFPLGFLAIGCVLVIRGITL
compound,measurement,setting,value
"NCCCC(=O)O [GABA, γ-aminobutyric acid]",nH,F16′Y ELIC,2.1 ± 0.3
same,fold increase in EC50 compared to wild type,F16′E ELIC [1]; F16′E ELIC vs wild type,16 fold
same,nH,"F16′E ELIC [1]; F16′E ELIC, GABA concentration–response",1.3 ± 0.2
same,nH,F16′A ELIC [2],3.0 ± 0.5
same,nH,T6′A ELIC [3],2.1 ± 0.1
same,nH,Q2′N ELIC [4],2.6 ± 1.3
same,fold change in EC50 compared to wild type,F16′L ELIC; F16′L ELIC vs wild type,32 fold
same,nH,"F16′L ELIC; F16′L ELIC, GABA concentration–response",1.6 ± 0.2
same,response to application of 100 mM GABA,Q2′A ELIC,did not respond
same,nH,F16′S ELIC [5],2.5 ± 0.6
same,nH,F16′W ELIC [6],3.6 ± 0.5
same,nH (Hill slope),wild type ELIC [7]; GABA concentration–response,2.5 ± 0.7
same,EC50,"wild type ELIC [7]; oocytes clamped at −60 mV, mean ± SEM, read-out: GABA pEC50 (converted)",1660 µM
same,EC50,wild type ELIC [7]; read-out: GABA EC50,1600 µM
same,nH,F16′T ELIC [8],1.8 ± 0.3
same,nH,F16′S/T6′S ELIC,2.2 ± 0.7
same,nH,F16′D ELIC [9],2.5 ± 0.3
same,nH,F16′Q ELIC,2.3 ± 0.6
same,nH,T6′S ELIC [10],2.7 ± 0.3
"C=C(C)[C@@H]1[C@H]2OC(=O)[C@@H]1[C@]1(O)C[C@H]3O[C@]34C(=O)O[C@H]2[C@]14C [PXN, Picrotoxinin]",nH,T6′A ELIC [11],1.8 ± 0.4
same,nH,F16′A ELIC [12],1.0 ± 0.2
same,nH,Q2′N ELIC [13],1.6 ± 0.3
same,IC50,GLIC,2.6 µM
same,nH,F16′D ELIC [14],1.0 ± 0.2
same,inhibition at 100 µM,"F16′W ELIC [15]; co-application of 100 μM PXN with GABA EC50, read-out: inhibition of the GABA EC50 response",~50%
same,nH,F16′W ELIC [15]; inhibition curve,1.3 ± 0.3
same,inhibition of the GABA EC50 response,F16′S ELIC [16]; co-application of 100 μM PXN with GABA EC50,completely abolishes
same,nH,F16′S ELIC [16]; inhibition curve,1.3 ± 0.3
same,nH,T6′S ELIC [17],1.3 ± 0.3
same,nH,F16′E ELIC [18],0.6 ± 0.1
same,nH,F16′T ELIC [19],0.9 ± 0.1
same,IC50,wild type ELIC [20],72 µM
same,inhibition at 100 µM,wild type ELIC [20]; read-out: inhibition of the GABA EC50 response,~50%
same,nH,"wild type ELIC [20]; wild type ELIC, inhibition curve",1.3 ± 0.3
